Measurements published in the METLIN SMRT retention time set (Domingo-Almenara et al. 2019).

Assay: gradient 5% acetonitrile 3 min, to 50% in 2 min, to 85% in 15 min, held 3 min, 100 µL/min
Settings: column: Zorbax Extend-C18 2.1 x 50 mm; eluents: water / acetonitrile, 0.1% formic acid
Summary of the method: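 A Zorbax Extend-C18 column (2.1 × 50 mm, 1.8 μm) run at 100 μL/min with water and acetonitrile, both containing 0.1% formic acid, separated mixtures of ~100 pure standards. The HPLC was coupled to a quadrupole time-of-flight mass spectrometer operated in positive and negative ionization mode, with dead and dwell volumes of 40 μL and 900 μL. Each retention time was taken from a computationally picked adduct peak that was then manually inspected.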

CCCCN(Cc1nc2nc(C)cc(C)n2n1)C(=O)c1ccco1
RP-LC retention time: 720 s

O=C(c1ccc(N2CCCC2)c(S(=O)(=O)N2CCCC2)c1)N1CCN(c2ccccn2)CC1
RP-LC retention time: 664 s

CC1CCN(c2ccc(-c3noc(CNC(=O)c4cccs4)n3)cc2)CC1
RP-LC retention time: 993 s

COC(=O)CCNC(=O)C1c2ccccc2C(=O)N(Cc2ccccc2)C12CCCC2 (stereo not given)
RP-LC retention time: 840 s

Cc1ccc(-n2nc(N3CCN(C(=O)Nc4ccccc4C)CC3)ccc2=O)cc1
RP-LC retention time: 787 s

COc1ccc(NC(=O)Cn2c(=O)n(-c3ccccc3)c(=O)c3c2cc(C)n3C)c(OC)c1
RP-LC retention time: 791 s

COc1ccc(NC(=O)C2CCN(S(=O)(=O)c3cc(-c4noc(C5CC5)n4)cs3)CC2)cc1
RP-LC retention time: 960 s

N#Cc1cccc(CN2CCCC(c3nc(-c4ccncc4)n[nH]3)C2)c1 (stereo not given)
RP-LC retention time: 494 s

COCCN1C(=O)c2ccccc2C(C(=O)NCc2ccccc2)C12CCCCC2 (stereo not given)
RP-LC retention time: 856 s

Cn1cc(CCNS(=O)(=O)c2ccc(Br)s2)c2cccnc21
RP-LC retention time: 779 s

O=C1Nc2ccccc2SC1C(=O)N1CCC(C(=O)N2CCN(c3ccccc3)CC2)CC1 (stereo not given)
RP-LC retention time: 766 s

CCN(C(=O)c1cc2c(s1)N(CCOC)CCCC2)C(C)C
RP-LC retention time: 1070 s

COc1ccc(OC)c(NC(=O)NC2CCN(c3cc(C)cc(C)c3)C2=O)c1 (stereo not given)
RP-LC retention time: 887 s

CCc1c(C(=O)O)nnn1-c1ccc(C)c(Cl)c1
RP-LC retention time: 809 s

CCOCCCNC(=O)C1CCCN(C(=O)c2cc(C)cc(C)c2)C1 (stereo not given)
RP-LC retention time: 743 s

O=c1nc(SCc2csc(-c3ccccc3)n2)c2c(n1CCCO)CCC2
RP-LC retention time: 736 s

Cc1ccn2cc(C(=O)NCc3ccccc3)nc2c1
RP-LC retention time: 636 s

CC(C)NC(=O)c1ccc(OCC2CCCN(C(=O)c3ccc(C#N)cc3)C2)cc1 (stereo not given)
RP-LC retention time: 800 s

CC(C)Cn1cc(NC(=O)N2CCN(c3ccccn3)CC2)c2ccccc2c1=O
RP-LC retention time: 573 s

C(=C\c1cccs1)/c1nc(-c2cccc(-c3ccn[nH]3)c2)no1
RP-LC retention time: 1010 s

CCN1CCN(C(=O)c2nc(N(CC)CC)c3c(C)cc(C)nc3n2)CC1
RP-LC retention time: 550 s

Cn1cnc2c(=O)oc3ccc(S(=O)(=O)N4CCN(c5ccccn5)CC4)cc3c21
RP-LC retention time: 576 s

CCSC1=NCCN1C(=O)C(C)(C)Oc1ccc(Cl)cc1
RP-LC retention time: 770 s

Cc1cc(C(=O)N2CCC3(CC2)CC(C)(O)CCO3)c(C)o1 (stereo not given)
RP-LC retention time: 677 s

O=c1n(Cc2ccccc2F)nc2c(S(=O)(=O)N3CCCCC3)cccn12
RP-LC retention time: 891 s

CN(CCc1noc(COc2ccc(Cl)cc2)n1)C(=O)NC(C)(C)C
RP-LC retention time: 953 s

COC(=O)CC(=O)Nc1nnc(SCc2nnc(-c3ccccc3C)o2)s1
RP-LC retention time: 758 s

CCCCc1ccc(NC(=O)CSc2cc(N3CCN(c4ccc(OC)cc4)CC3)ncn2)cc1
RP-LC retention time: 1310 s

O=S(=O)(c1cccs1)N1CCN(c2ccc(Nc3cccnc3)nn2)CC1
RP-LC retention time: 548 s

CC(=O)Nc1ccc(-n2c(-c3ccc(Cl)cc3)cn3c4c(=O)n(C)c(=O)n(C)c4nc23)cc1
RP-LC retention time: 766 s

O=C(NCc1ccccn1)c1cccc2c1CCN2C(=O)c1ccc(F)cc1
RP-LC retention time: 644 s

CCOC(=O)C1=C(C)NC(=O)NC1c1cn(-c2ccccc2)nc1-c1ccc(OC)cc1 (stereo not given)
RP-LC retention time: 842 s

CC(C)n1cnc(S(=O)(=O)N2CCC(C(=O)N3CCc4ccccc43)CC2)c1
RP-LC retention time: 769 s

CCCc1nc(-c2ccccc2)oc1CC(=O)N1CCN(c2ccccc2F)CC1
RP-LC retention time: 1090 s

Cc1cnc(C2CC2)n1C1CCN(S(=O)(=O)c2ccc(C#N)cc2)C1 (stereo not given)
RP-LC retention time: 647 s

Cc1cc(C)n(Cc2nc(-c3ccc(NC(=O)c4cccs4)cc3)oc2C)n1
RP-LC retention time: 896 s

Cn1nc(-c2nc(-c3ccccc3F)no2)c2c1CCN(C(=O)NC(C)(C)C)C2
RP-LC retention time: 594 s

COc1ccc(N2CCN(CC(=O)Nc3ccc4c(c3)Cc3ccccc3-4)C2=O)cc1
RP-LC retention time: 915 s

O=C(Nc1ccc(N2CCN(C3CCCC3)C2=O)nc1)c1cccnc1
RP-LC retention time: 638 s

O=C(Cn1nc2n(c1=O)CCCC2)NCc1ccc(F)cc1
RP-LC retention time: 642 s

CC(C)N(CCC(=O)c1ccc2ccccc2c1)Cc1ccccc1
RP-LC retention time: 859 s

CCOC(=O)c1c(S(=O)(=O)N2CCC(C(=O)Nc3ccc(F)c(F)c3)CC2)c(C)n(C)c1C
RP-LC retention time: 890 s

O=C(O)c1ccc2c(c1)n(Cc1cccc(F)c1)c(=O)c1ccnn12
RP-LC retention time: 784 s

COc1cccc(NC(=O)NCCC2CCN(S(=O)(=O)c3ccccc3)CC2)c1
RP-LC retention time: 870 s

Cc1nn(-c2ccc(-c3ccccc3)nn2)c(C)c1S(=O)(=O)NCc1ccccc1
RP-LC retention time: 1030 s
